According to PubChem BioAssay (NCI):
Several values for one entry are separate records, joined by “and”; a condition that tells them apart may be missing. Equal values may be shown once.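 Growth conditions: 96-well plates. Treatment: test compound, 48 hours, 5 concentrations. Analysis: linear interpolation between bracketing concentrations; unreached endpoints set to highest concentration. Here, GI50 denotes the concentration required for 50% inhibition of growth. TGI: concentration producing complete growth inhibition.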

Each compound was assayed on HOP-62 NSCLC (assay: inhibition of tumour cell growth, NCI panel, 48 h).
CC1(C)C(=O)/C(=C\c2cccnc2)C[C@]2(C)[C@H]3CC[C@@H]4[C@H]5[C@H](C(=O)/C=C/c6cccnc6)CC[C@]5(C(=O)O)CC[C@@]4(C)[C@]3(C)CC[C@@H]12 gave a GI50 of 1.89 µM and a TGI of 4.5 µM. COc1cc2ncnc(-n3ncc4cc(NC(=O)Nc5ccccc5)ccc43)c2cc1OC gave a GI50 of 1.3 µM. In the case of COc1ccc(C(=O)c2cc(OC)c(OC)c(OC)c2)cc1/C=C/C(=O)c1ccc(F)cc1, the GI50 is reported as 3.92 µM and the TGI is reported as 26.7 µM. With OCC1OC(n2cnc3c2NC=NC[C@H]3O)C(Cl)C1O (some centres undefined) the TGI was > 100 µM. For COc1ccc(C2=C(Cl)c3cc(OC)c(OC)cc3C2Cl)cc1 (centres undefined), the TGI was 32.2 µM. COc1ccc(-c2[nH]c3ccc(OC)cc3c2/C=C(\C#N)S(=O)(=O)c2ccccc2)cc1 was tested, and the GI50 was 2.97 µM and the TGI was 48.1 µM. O=c1cc(NCC(O)CN2CCCC2)n(Cc2ccccc2)c(=O)n1Cc1ccccc1 (centres undefined) showed a GI50 of 18.7 µM and a TGI of 54.4 µM. With c1ccc(Sc2ccc(Cc3nc4cc5ccccc5cc4[nH]3)cc2)cc1 the GI50 was 8.71 µM and the TGI was > 75.5 µM. CCc1nc2cc(F)c(/C=C/C(=O)NO)cc2c(=O)n1CCc1ccccc1 gave a GI50 of 0.291 µM and a TGI of 1.74 µM. For COc1cc2c(cc1OCCCCC(=O)Nc1cc3c4ccccc4ccc3c3ccccc13)N=C[C@@H]1CCCN1C2=O, the GI50 was 10.1 µM and the TGI was 40.8 µM. C=C1C(=O)O[C@H]2[C@H]1CC/C(COC(=O)NCCCCNC(=O)OC/C1=C/CC[C@@]3(C)O[C@H]3[C@H]3OC(=O)C(=C)[C@@H]3CC1)=C\CC[C@@]1(C)O[C@@H]21 showed a GI50 of 3.84 µM and a TGI of 14 µM. In the case of COc1ccc(-c2cc(-c3cc(C)cc(Br)c3O)no2)cc1, the TGI is reported as 41.9 µM. With COc1ccc(-c2nc3ccccn3c2/C=C/C(=O)c2cc(OC)c(OC)c(OC)c2)cc1OC the GI50 was 4.42 µM and the TGI was 30 µM. Work on COc1cc2c3c(n(CCCN)c(=O)c2cc1OC)-c1ccc(C#N)cc1C3=O yielded a GI50 of 4.01 µM and a TGI of 19.1 µM. O=C(Nc1cc(Cl)c(Cl)cc1Cl)C(=O)C1C(=O)NC(=S)NC1=O was tested, and the TGI was > 100 µM. With CCCCC(CC)COC(=O)C[N+](C)(C)CCOC(c1ccccc1)c1ccccc1 (centres undefined) the GI50 was 9.89 µM and the TGI was 28.6 µM. In the case of CCOC(=O)/C(C)=C(/O)C(=O)OCC, the TGI is reported as > 100 µM. With CCCCNC1CCCCC[C@H]1O (some centres undefined) the TGI was > 100 µM. In the case of COc1cc(/C=C/c2ccc(OC)c(O)c2)cc(OC)c1, the TGI is reported as 15.4 µM. Cc1cc(NC(=S)SCc2ccc(F)cc2)c([N+](=O)[O-])cc1C was tested, and the TGI was 68.1 µM. For COc1ccc(C(=O)c2cc(C)c(OC)c(C)c2)cc1OC(=O)CCl, the GI50 was < 0.0191 µM and the TGI was > 100 µM. Work on O=C(Nc1ccccc1-c1nc2ccccc2[nH]c1=O)c1ccccc1 yielded a TGI of 35.9 µM. In the case of CC1=[N+]([O-])c2ccccc2C(=O)C1=O, the TGI is reported as > 100 µM. NC(=O)c1cc(Cl)ccc1NC(=O)/C=C/c1ccccc1 was tested, and the GI50 was 7.79 µM and the TGI was > 41.6 µM. CC12OC(C(=O)C13CC3)C1C(=O)c3ccc4c(ccc5ccccc54)c3C(=O)C12 (centres undefined) showed a GI50 of 28.9 µM and a TGI of 99.8 µM. In the case of CNC(=S)/N=C(\N)N(C)C, the TGI is reported as > 100 µM. With CC(=O)C1Cn2c(nc3ccccc32)C[Se]1 (centres undefined) the TGI was 5.39 µM. In the case of COc1cc(Cc2nccc3cc(OC)c(OC)cc23)c(C(C)=O)cc1OC, the GI50 is reported as 101 µM and the TGI is reported as 135 µM and 394 µM. Work on Nc1ccccc1C#C/C=C\C#Cc1ccccc1N yielded a GI50 of 12.1 µM and a TGI of 32.3 µM. Compound CN(C)CCC1(C2=CCCC2)CC/C(=C\c2ccc(Cl)cc2)C1=O (centres undefined) has a TGI of 32.7 µM. For CC1=CC(C)(C)N=C2SC(c3ccc(N)cc3)=NN12, the TGI was > 100 µM. For c1cnn(CN(Cn2cccn2)Cn2cccn2)c1, the TGI was > 100 µM. O=C1C2C3C=C4c5ccccc5N(c5ccccc5)C4(C2C(=O)N1c1ccc([N+](=O)[O-])cc1)[C@H]1C(=O)N(c2ccc([N+](=O)[O-])cc2)C(=O)[C@@H]31 (some centres undefined) was tested, and the TGI was > 100 µM.

Each compound was assayed on MCF7 breast (assay: inhibition of tumour cell growth, NCI panel, 48 h).
With CC1(C)C(=O)/C(=C\c2cccnc2)C[C@]2(C)[C@H]3CC[C@@H]4[C@H]5[C@H](C(=O)/C=C/c6cccnc6)CC[C@]5(C(=O)O)CC[C@@]4(C)[C@]3(C)CC[C@@H]12 the GI50 was 2560 nM and the TGI was 10.7 µM. For COc1cc2ncnc(-n3ncc4cc(NC(=O)Nc5ccccc5)ccc43)c2cc1OC, the GI50 was 234 nM and the TGI was 1.9 µM. For COc1ccc(C(=O)c2cc(OC)c(OC)c(OC)c2)cc1/C=C/C(=O)c1ccc(F)cc1, the GI50 was 2300 nM and the TGI was 11.1 µM. With OCC1OC(n2cnc3c2NC=NC[C@H]3O)C(Cl)C1O (some centres undefined) the TGI was > 100 µM. In the case of COc1ccc(C2=C(Cl)c3cc(OC)c(OC)cc3C2Cl)cc1 (centres undefined), the TGI is reported as 22.8 µM. In the case of COc1ccc(-c2[nH]c3ccc(OC)cc3c2/C=C(\C#N)S(=O)(=O)c2ccccc2)cc1, the GI50 is reported as 774 nM and the TGI is reported as > 100 µM. For O=c1cc(NCC(O)CN2CCCC2)n(Cc2ccccc2)c(=O)n1Cc1ccccc1 (centres undefined), the GI50 was 19100 nM and the TGI was 34.8 µM. c1ccc(Sc2ccc(Cc3nc4cc5ccccc5cc4[nH]3)cc2)cc1 was tested, and the GI50 was 6730 nM and the TGI was > 100 µM. CCc1nc2cc(F)c(/C=C/C(=O)NO)cc2c(=O)n1CCc1ccccc1 was tested, and the GI50 was 302 nM and the TGI was > 100 µM. CC1=C(/C=C/Cl)CC(Cl)C(C)(Cl)C1 (centres undefined) was tested, and the TGI was > 100 µM. COc1cc2c(cc1OCCCCC(=O)Nc1cc3c4ccccc4ccc3c3ccccc13)N=C[C@@H]1CCCN1C2=O was tested, and the GI50 was 3450 nM and the TGI was 34.1 µM. Work on COc1ccc(-c2cc(-c3cc(C)cc(Br)c3O)no2)cc1 yielded a TGI of 42.4 µM. In the case of COc1ccc(-c2nc3ccccn3c2/C=C/C(=O)c2cc(OC)c(OC)c(OC)c2)cc1OC, the GI50 is reported as 2760 nM and the TGI is reported as > 100 µM. COc1cc2c3c(n(CCCN)c(=O)c2cc1OC)-c1ccc(C#N)cc1C3=O gave a GI50 of 8360 nM and a TGI of 40.1 µM. In the case of CCCCC(CC)COC(=O)C[N+](C)(C)CCOC(c1ccccc1)c1ccccc1 (centres undefined), the GI50 is reported as 1990 nM and the TGI is reported as 4.34 µM. With Cc1cc(NC(=S)SCc2ccc(F)cc2)c([N+](=O)[O-])cc1C the TGI was > 100 µM. With COc1ccc(C(=O)c2cc(C)c(OC)c(C)c2)cc1OC(=O)CCl the GI50 was < 10 nM and the TGI was > 100 µM. NC(=O)c1cc(Cl)ccc1NC(=O)/C=C/c1ccccc1 was tested, and the GI50 was 1780 nM and the TGI was > 100 µM. For CC12OC(C(=O)C13CC3)C1C(=O)c3ccc4c(ccc5ccccc54)c3C(=O)C12 (centres undefined), the GI50 was 23100 nM and the TGI was > 100 µM. COc1cc(Cc2nccc3cc(OC)c(OC)cc23)c(C(C)=O)cc1OC showed a TGI of 300 µM. In the case of Nc1ccccc1C#C/C=C\C#Cc1ccccc1N, the GI50 is reported as 9980 nM and the TGI is reported as > 100 µM.

The compounds below were run on UO-31 renal (assay: inhibition of tumour cell growth, NCI panel, 48 h).
COc1cc2ncnc(-n3ncc4cc(NC(=O)Nc5ccccc5)ccc43)c2cc1OC gave a GI50 of 499 nM and a TGI of 2.84 µM. COc1ccc(C(=O)c2cc(OC)c(OC)c(OC)c2)cc1/C=C/C(=O)c1ccc(F)cc1 gave a GI50 of 1770 nM and a TGI of 3.49 µM. OCC1OC(n2cnc3c2NC=NC[C@H]3O)C(Cl)C1O (some centres undefined) was tested, and the TGI was > 100 µM. COc1ccc(C2=C(Cl)c3cc(OC)c(OC)cc3C2Cl)cc1 (centres undefined) was tested, and the TGI was 13.4 µM. For COc1ccc(-c2[nH]c3ccc(OC)cc3c2/C=C(\C#N)S(=O)(=O)c2ccccc2)cc1, the GI50 was 2690 nM and the TGI was > 27.6 µM. In the case of O=c1cc(NCC(O)CN2CCCC2)n(Cc2ccccc2)c(=O)n1Cc1ccccc1 (centres undefined), the GI50 is reported as 45800 nM and the TGI is reported as > 100 µM. With c1ccc(Sc2ccc(Cc3nc4cc5ccccc5cc4[nH]3)cc2)cc1 the GI50 was 20700 nM and the TGI was > 100 µM. CCc1nc2cc(F)c(/C=C/C(=O)NO)cc2c(=O)n1CCc1ccccc1 showed a GI50 of 200 nM and a TGI of 0.648 µM. For CC1=C(/C=C/Cl)CC(Cl)C(C)(Cl)C1 (centres undefined), the TGI was > 100 µM. Compound COc1cc2c(cc1OCCCCC(=O)Nc1cc3c4ccccc4ccc3c3ccccc13)N=C[C@@H]1CCCN1C2=O has a GI50 of 1220 nM. Compound C=C1C(=O)O[C@H]2[C@H]1CC/C(COC(=O)NCCCCNC(=O)OC/C1=C/CC[C@@]3(C)O[C@H]3[C@H]3OC(=O)C(=C)[C@@H]3CC1)=C\CC[C@@]1(C)O[C@@H]21 has a GI50 of 7610 nM and a TGI of 20.9 µM. COc1ccc(-c2cc(-c3cc(C)cc(Br)c3O)no2)cc1 was tested, and the TGI was 31.9 µM. With COc1ccc(-c2nc3ccccn3c2/C=C/C(=O)c2cc(OC)c(OC)c(OC)c2)cc1OC the GI50 was 552 nM and the TGI was 12.7 µM. In the case of COc1cc2c3c(n(CCCN)c(=O)c2cc1OC)-c1ccc(C#N)cc1C3=O, the GI50 is reported as 19100 nM and the TGI is reported as 71.2 µM. In the case of O=C(Nc1cc(Cl)c(Cl)cc1Cl)C(=O)C1C(=O)NC(=S)NC1=O, the TGI is reported as > 100 µM.
